These results are taken from US4666842A, “Novel aldehyde oxidase and process for producing same” (Kyowa Hakko Kogyo Co., Inc., priority 1982, dated 1987).

Series [1] deals with aldehyde oxidase (the present enzyme). Kind of series: Substrate specificity of the present aldehyde oxidase. Format: biochemical, Pseudomonas sp No. 6233. Conditions: for Relative activity (substrate specificity): purified enzyme of Example 1, formaldehyde = 100%. The method, then:
(§1) The amount of enzyme for decomposing 1 μmol of acetaldehyde in the presence of oxygen at 37° C. in one minute is designated as one unit. Specific activity is expressed by unit per mg of protein. The amount of enzyme protein is measured according to the method of O. H. Lowry, N. J. Rosebrough, A. L. Farr and R. J. Randall, J. Biol. Chem., 193 265(1951) using a copper-Folin reagent.
(§2) The enzyme activity can be measured by allowing the hydrogen peroxide formed from acetaldehyde by the action of the enzyme to react with 4-aminoantipyrine and phenol in the presence of a peroxidase and by quantitatively determining the amount of quinoneimine formed. The reaction is illustrated by the following equations (1) and (2): [drawing 1]
(§3) The above reagents (1)-(6) are put into a test tube, thoroughly shaken, and left standing at 37° C. for 5 minutes. Then, the enzyme solution (7) is added to the test tube to make up a total volume of 3 ml, and the test tube is shaken at 37° C. for 10 minutes to complete the reaction. As a control, the procedure is repeated using water in place of the substrate. The absorbancies of the reaction solution and control at 500 nm are measured, and the difference between the absorbancies is obtained as ΔO.D.
(§4) One unit of aldehyde oxidase is the amount of enzyme for decomposing 1 μmole of acetaldehyde at 37° C. in one minute. The absorbancy coefficient of 1 mM quinoneimine is reported in Clin. Chem., 20, 470(1974) to be 5.33. Therefore, if the absorbancy (ΔO.D.) of 3 ml of the reaction solution at 500 nm as obtained in the procedure (C) is designation as a, titer (A) per ml of the enzyme solution can be given as follows: [formula]
(§5) II. Physical and chemical properties of the aldehyde oxidase of the present invention are described below (hereinafter, the aldehyde oxidase will be sometimes referred to merely as "the present enzyme"). A purified enzyme prepared in Example 1 is used as the aldehyde oxidase.
For example, formaldehyde, acetaldehyde and glyceraldehyde are oxidized to formic acid, acetic acid and glyceric acid respectively. The present enzyme acts upon a wide range of aldehydes, for example, saturated aliphatic aldehydes such as formaldehyde, acetaldehyde, propionaldehyde, n-valeraldehyde, n-hexylaldehyde, heptylaldehyde, etc.; unsaturated aliphatic aldehydes such as crotonaldehyde, citral, etc.; aromatic aldehydes such as benzaldehyde, etc.; D- or L-glyceraldehyde, etc.
In the following Table 1, the relative activity of the present enzyme upon various substrates is set forth.

For series [2] the test system is unchanged. Format: biochemical, Pseudomonas sp No. 6233. The method, then:
as §1, §2, §3, §4, §5
The present enzyme is inhibited by mercuric chloride and p-chloromercuriphenylsulfonic acid, and thus it appears that an SH group takes part in the reaction.

The target of series [3] is T1, aldehyde oxidase of animal origin (Oryctolagus cuniculus, UniProt P80456).
T1 sequence (P80456 1-1334): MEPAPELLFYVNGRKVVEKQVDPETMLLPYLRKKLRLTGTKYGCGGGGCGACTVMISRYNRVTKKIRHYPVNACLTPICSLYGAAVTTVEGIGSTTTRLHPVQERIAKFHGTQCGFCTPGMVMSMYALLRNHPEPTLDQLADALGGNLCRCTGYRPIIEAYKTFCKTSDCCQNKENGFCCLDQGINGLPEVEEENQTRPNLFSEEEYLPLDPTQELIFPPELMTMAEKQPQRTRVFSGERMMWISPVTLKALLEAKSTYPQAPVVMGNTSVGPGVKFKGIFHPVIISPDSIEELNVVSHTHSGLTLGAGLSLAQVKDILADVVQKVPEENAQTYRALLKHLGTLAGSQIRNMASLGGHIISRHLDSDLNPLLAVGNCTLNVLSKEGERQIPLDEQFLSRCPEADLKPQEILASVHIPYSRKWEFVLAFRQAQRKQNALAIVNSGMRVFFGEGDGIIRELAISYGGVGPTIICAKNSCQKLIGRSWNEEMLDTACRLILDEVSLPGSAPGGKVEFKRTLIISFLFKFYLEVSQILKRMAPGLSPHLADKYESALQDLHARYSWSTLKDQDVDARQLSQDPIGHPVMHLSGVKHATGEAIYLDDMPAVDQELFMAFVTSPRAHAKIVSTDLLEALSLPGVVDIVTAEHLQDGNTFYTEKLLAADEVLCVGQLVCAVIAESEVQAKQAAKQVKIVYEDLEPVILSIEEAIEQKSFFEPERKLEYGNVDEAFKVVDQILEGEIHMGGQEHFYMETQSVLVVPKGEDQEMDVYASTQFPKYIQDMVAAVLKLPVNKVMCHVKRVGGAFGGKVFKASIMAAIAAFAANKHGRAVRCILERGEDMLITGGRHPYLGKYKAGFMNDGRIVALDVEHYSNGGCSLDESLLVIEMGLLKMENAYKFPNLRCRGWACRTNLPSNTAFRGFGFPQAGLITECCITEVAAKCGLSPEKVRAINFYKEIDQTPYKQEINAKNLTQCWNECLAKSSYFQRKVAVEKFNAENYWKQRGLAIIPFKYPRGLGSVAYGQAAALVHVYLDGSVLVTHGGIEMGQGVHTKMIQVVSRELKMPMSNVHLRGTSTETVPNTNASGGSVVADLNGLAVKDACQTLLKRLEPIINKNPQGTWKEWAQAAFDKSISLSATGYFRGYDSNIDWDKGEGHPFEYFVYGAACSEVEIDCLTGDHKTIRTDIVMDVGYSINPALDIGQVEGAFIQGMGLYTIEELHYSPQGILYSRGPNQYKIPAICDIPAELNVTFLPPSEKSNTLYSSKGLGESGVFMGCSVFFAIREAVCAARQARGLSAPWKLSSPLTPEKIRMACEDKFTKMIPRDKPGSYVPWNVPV
The note with it: known enzyme, literature; cited from earlier work.

Series [4] concerns the target T1, aldehyde oxidase of animal origin. The class given is biochemical. An excerpt: *aldehyde oxidase of animal origin for comparison purposes.
[5] abbreviates: concentration 0.1 mM, none = 100.

Entries after “also recorded” stand apart in the source; their conditions may differ. Like-named read-outs stand apart in the source and are kept apart here.

As for `CC=O` [Acetaldehyde], in series [1], the “action of the present enzyme upon the substrate” value is on record as “acts upon” and the “Relative activity (substrate specificity)” value came out at 266%.

Turning to `[Ba+2].[Cl-].[Cl-]` [BaCl2], the “Relative activity (%)” value in series [2] (setting [5]) was determined as 87%.

With `O=Cc1ccccc1` [Benzaldehyde], in series [1], the “action of the present enzyme upon the substrate” value was “acts upon” and the “Relative activity (substrate specificity)” value stood at 93%.

For `CC(=O)O` [Ca(CH3 COO)2], in series [2] (1000 µM), the “Relative activity (%)” value is 109%.

In the case of `CC(C)=CCCC(C)=CC=O` [Citral], in series [1], the “action of the present enzyme upon the substrate” value is “acts upon” and the “Relative activity (substrate specificity)” value worked out at 291%.

Turning to `[Cl-].[Cl-].[Co+2]` [CoCl2], the “Relative activity (%)” value in series [2] (concentration 1 mM, none = 100) stood at 104%.

For `C/C=C/C=O` [Crotonaldehyde], in series [1], the “action of the present enzyme upon the substrate” value is reported as “acts upon” and the “Relative activity (substrate specificity)” value was found to be 260%.

`O=S(=O)([O-])[O-].[Cu+2]` [CuSO4]: the “Relative activity (%)” value in series [2] (setting [5]) worked out at 20%.

Take `O=C[C@H](O)CO` [D-Glyceraldehyde]: in series [1], the “action of the present enzyme upon the substrate” value is reported as “acts upon” and the “Relative activity (substrate specificity)” value amounted to 270%.

For `CCO` [Ethanol], in series [1], the “action of the present enzyme upon the substrate” value is recorded as “does not act upon” and the “Relative activity (substrate specificity)” value turned out to be 0%.

Consider `O=S(=O)([O-])[O-].[Fe+2]` [FeSO4], for which the “Relative activity (%)” value in series [2] (setting [5]) came out at 100%.

As for `C=O` [Formaldehyde], in series [1], the “action of the present enzyme upon the substrate” value is “acts upon” and the “Relative activity (substrate specificity)” value came to 100%.

Regarding `CCCCCCC=O` [Heptylaldehyde], in series [1], the “action of the present enzyme upon the substrate” value was “acts upon” and the “Relative activity (substrate specificity)” value was found to be 387%.

Turning to `[Cl][Hg][Cl]` [HgCl2, mercuric chloride], the “Relative activity (%)” value in series [2] (setting [5]) came to 0%. Also, in series [2], the “inhibition of the present enzyme” value is given as “inhibited”.

`NO` [Hydroxylamine]: the “Relative activity (%)” value in series [2] (concentration 1 mM, none = 100) is 110%.

In the case of `O=c1[nH]cnc2nc[nH]c12` [Hypoxanthine], the “action of aldehyde oxidase of animal origin upon the substrate” value in series [3] was “acts upon”. Further, in series [1], the “action of the present enzyme upon the substrate” value is on record as “does not have any catalytic action” and the “Relative activity (substrate specificity)” value turned out to be 0%.

As for `O=C[C@@H](O)CO` [L-Glyceraldehyde], in series [1], the “action of the present enzyme upon the substrate” value is on record as “acts upon” and the “Relative activity (substrate specificity)” value was determined as 23%.

Take `CO` [Methanol]: in series [1], the “action of the present enzyme upon the substrate” value is “does not act upon” and the “Relative activity (substrate specificity)” value stood at 0%.

For `O=S(=O)([O-])[O-].[Mg+2]` [MgSO4], in series [2] (concentration 1 mM, none = 100), the “Relative activity (%)” value worked out at 97%.

As for `[Cl][Mn][Cl]` [MnCl2], in series [2] (concentration 1 mM, none = 100), the “Relative activity (%)” value was found to be 106%.

Consider `C[n+]1cccc(C(N)=O)c1` [N'--Methylnicotinamide], for which, in series [1], the “action of the present enzyme upon the substrate” value was “does not act upon” and the “Relative activity (substrate specificity)” value is reported as 0%.

In the case of `c1cnc2c(c1)ccc1cccnc12` [O--Phenanthroline], the “Relative activity (%)” value in series [2] (concentration 1 mM, none = 100) is 103%.

As for `CCC=O` [Propionaldehyde], in series [1], the “action of the present enzyme upon the substrate” value is reported as “acts upon” and the “Relative activity (substrate specificity)” value is 285%.

In the case of `c1ncc2[nH]cnc2n1` [Purine], the “action of aldehyde oxidase of animal origin upon the substrate” value in series [3] is reported as “acts upon”. In series [1], the “action of the present enzyme upon the substrate” value was “does not have any catalytic action” and the “Relative activity (substrate specificity)” value came to 0%.

Consider `C=C[C@H]1C[N@@]2CC[C@H]1C[C@H]2[C@H](O)c1ccnc2ccc(OC)cc12` [Quinine], for which, in series [1], the “action of the present enzyme upon the substrate” value is listed as “does not have any catalytic action; also recorded: does not act upon” and the “Relative activity (substrate specificity)” value turned out to be 0%.

With `c1ccc2ncccc2c1` [Quinoline], in series [1], the “action of the present enzyme upon the substrate” value was “does not act upon” and the “Relative activity (substrate specificity)” value worked out at 0%.

On to `ON=Cc1ccccc1O` [Salicylaldoxime], for which the “Relative activity (%)” value in series [2] (1000 µM) amounted to 91%.

For `[Cl-].[Cl-].[Sr+2]` [SrCl2], the “Relative activity (%)” value in series [2] (concentration 1 mM, none = 100) is on record as 94%.

Take `[Cl-].[Cl-].[Zn+2]` [ZnCl2]: in series [2] (concentration 1 mM, none = 100), the “Relative activity (%)” value is reported as 103%.

For the molecule `CCCCCC=O` [n-Hexylaldehyde], in series [1], the “action of the present enzyme upon the substrate” value was “acts upon” and the “Relative activity (substrate specificity)” value is given as 390%.

With `CCCCC=O` [n-Valeraldehyde], in series [1], the “action of the present enzyme upon the substrate” value was “acts upon” and the “Relative activity (substrate specificity)” value is recorded as 367%.

For the molecule `O=S(=O)(O)c1cc[c]([Hg][Cl])cc1` [p-Chloromercuriphenylsulfonic acid, p-chloromercuriphenylsulfonic acid], the “Relative activity (%)” value in series [2] (setting [5]) is 0%. Also, the “inhibition of the present enzyme” value in series [2] is recorded as “inhibited”.

Take `c1ccc(-c2ccccn2)nc1` [α, α'-Dipyridyl]: the “Relative activity (%)” value in series [2] (concentration 1 mM, none = 100) was found to be 85%.

Consider Antimycin A, for which the “Relative activity (%)” value in series [2] (concentration 2 × 10^-3 mM, none = 100, 2 µM) came out at 94%. In addition, the “inhibition of the present enzyme” value in series [2] is reported as “not strongly inhibited”. Also, the “Relative activity (%), aldehyde oxidase of animal origin” value in series [4] (concentration 2 × 10^-3 mM, value in brackets, for comparison, 2 µM) stood at 38%. In addition, in series [4] (known aldehyde oxidase), the “inhibition of the known aldehyde oxidase of animal origin” value was “strongly inhibited”.
